From patent publication US10064873B2, “Compounds and compositions for treating HIV with derivatives of Betulin” (GlaxoSmithKline LLC, priority 2011, dated 2018)

Tested on: HIV NL4-3 wt
Experiment: MT4 antiviral assay, NL4-3 strain wild type
Assay type: cell-based, HIV-1
Conditions: Human immunodeficiency virus 1, NL43, MT4, read-out: EC50 NL4-3 wt (nM)

Point of comparison: `CC(C)C1=C2[C@H]3CC[C@@H]4[C@@]5(C)CC[C@H](OC(=O)CC(C)(C)C(=O)O)C(C)(C)[C@@H]5CC[C@@]4(C)[C@]3(C)CC[C@@]2([C@H]2CN(C3(c4ncc(Cl)cn4)CC3)C(=O)O2)CC1=O` [Example 60, 4-(((3aR,5aR,5bR,7aR,9S,11aR,11bR,13aS)-3a-((S)-3-(1-(5-chloropyrimidin-2-yl)cyclopropyl)-2-oxooxazolidin-5-yl)-1-isopropyl-5a,5b,8,8,11a-pentamethyl-2-oxo-3,3a,4,5,5a,5b,6,7,7a,8,9,10,11,11a,11b,12,13,13a-octadecahydro-2H-cyclopenta[a]chrysen-9-yl)oxy)-2,2-dimethyl-4-oxobutanoic acid], EC50 60.2 nM. Against it:
- CC(=O)O[C@H](CNCc1cccc(Cl)c1)[C@@]12CC[C@]3(C)[C@H](CC[C@@H]4[C@@]5(C)CC[C@H](OC(=O)CC(C)(C)C(=O)O)C(C)(C)[C@@H]5CC[C@]43C)C1=C(C(C)C)C(=O)C2 [Example 39, 4-(((3aR,5aR,5bR,7aR,9S,11aR,11bR,13aS)-3a-((S)-1-Acetoxy-2-((3-chlorobenzyl)amino)ethyl)-1-isopropyl-5a,5b,8,8,11a-pentamethyl-2-oxo-3,3a,4,5,5a,5b,6,7,7a,8,9,10,11,11a,11b,12,13,13a-octadecahydro-2H-cyclopenta[a]chrysen-9-yl)oxy)-2,2-dimethyl-4-oxobutanoic acid] — 9.1-fold lower, 6.6 nM
- CC(=O)O[C@@H](CNCc1cccc(Cl)c1)[C@@]12CC[C@]3(C)[C@H](CC[C@@H]4[C@@]5(C)CC[C@H](OC(=O)CC(C)(C)C(=O)O)C(C)(C)[C@@H]5CC[C@]43C)C1=C(C(C)C)C(=O)C2 [Example 40, 4-(((3aR,5aR,5bR,7aR,9S,11aR,11bR,13aS)-3a-((R)-1-Acetoxy-2-((3-chlorobenzyl)amino)ethyl)-1-isopropyl-5a,5b,8,8,11a-pentamethyl-2-oxo-3,3a,4,5,5a,5b,6,7,7a,8,9,10,11,11a,11b,12,13,13a-octadecahydro-2H-cyclopenta[a]chrysen-9-yl)oxy)-2,2-dimethyl-4-oxobutanoic acid] — 5.4-fold lower, 11.1 nM
- CCN(Cc1ccccc1Cl)C[C@H](O)[C@@]12CC[C@]3(C)[C@H](CC[C@@H]4[C@@]5(C)CC[C@H](OC(=O)CC(C)(C)C(=O)O)C(C)(C)[C@@H]5CC[C@]43C)C1=C(C(C)C)C(=O)C2 [Example 49, 4-(((3aR,5aR,5bR,7aR,9S,11aR,11bR,13aS)-3a-((R)-2-((2-chlorobenzyl)(ethyl)amino)-1-hydroxyethyl)-1-isopropyl-5a,5b,8,8,11a-pentamethyl-2-oxo-3,3a,4,5,5a,5b,6,7,7a,8,9,10,11,11a,11b,12,13,13a-octadecahydro-2H-cyclopenta[a]chrysen-9-yl)oxy)-2,2-dimethyl-4-oxobutanoic acid] — 2.8-fold lower, 21.8 nM
- CC(C)C1=C2[C@H]3CC[C@@H]4[C@@]5(C)CC[C@H](OC(=O)CC(C)(C)C(=O)O)C(C)(C)[C@@H]5CC[C@@]4(C)[C@]3(C)CC[C@@]2([C@@H]2CN(C3(c4ncc(Cl)cn4)CC3)C(=O)O2)CC1=O [Example 61, 4-(((3aR,5aR,5bR,7aR,9S,11aR,11bR,13aS)-3a-((R)-3-(1-(5-chloropyrimidin-2-yl)cyclopropyl)-2-oxooxazolidin-5-yl)-1-isopropyl-5a,5b,8,8,11a-pentamethyl-2-oxo-3,3a,4,5,5a,5b,6,7,7a,8,9,10,11,11a,11b,12,13,13a-octadecahydro-2H-cyclopenta[a]chrysen-9-yl)oxy)-2,2-dimethyl-4-oxobutanoic acid] — 2.2-fold higher, 130 nM

Same assay, conditions: Human immunodeficiency virus 1, NL43; MT4 cells; read-out: EC50 NL4-3 wt

Point of comparison: `CC(=O)N(Cc1ccccc1Cl)C[C@@H](O)[C@@]12CC[C@]3(C)[C@H](CC[C@@H]4[C@@]5(C)CC[C@H](OC(=O)CC(C)(C)C(=O)O)C(C)(C)[C@@H]5CC[C@]43C)C1=C(C(C)C)C(=O)C2` [Example 35, 4-(((3aR,5aR,5bR,7aR,9S,11aR,11bR,13aS)-3a-((S)-2-(N-(2-Chlorobenzyl)acetamido)-1-hydroxyethyl)-1-isopropyl-5a,5b,8,8,11a-pentamethyl-2-oxo-3,3a,4,5,5a,5b,6,7,7a,8,9,10,11,11a,11b,12,13,13a-octadecahydro-2H-cyclopenta[a]chrysen-9-yl)oxy)-2,2-dimethyl-4-oxobutanoic acid], EC50 4.2 nM. Against it:
- CC(=O)O[C@H](CN(CCN(C)C)Cc1ccccc1Cl)[C@@]12CC[C@]3(C)[C@H](CC[C@@H]4[C@@]5(C)CC[C@H](OC(=O)CC(C)(C)C(=O)O)C(C)(C)[C@@H]5CC[C@]43C)C1=C(C(C)C)C(=O)C2 [Example 36, 4-(((3aR,5aR,5bR,7aR,9S,11aR,11bR,13aS)-3a-((S)-1-Acetoxy-2-((2-chlorobenzyl)(2-(dimethylamino)ethyl)amino)ethyl)-1-isopropyl-5a,5b,8,8,11a-pentamethyl-2-oxo-3,3a,4,5,5a,5b,6,7,7a,8,9,10,11,11a,11b,12,13,13a-octadecahydro-2H-cyclopenta[a]chrysen-9-yl)oxy)-2,2-dimethyl-4-oxobutanoic acid] — within 1.5-fold, 4 nM
- CC(C)C1=C2[C@H]3CC[C@@H]4[C@@]5(C)CC[C@H](OC(=O)CC(C)(C)C(=O)O)C(C)(C)[C@@H]5CC[C@@]4(C)[C@]3(C)CC[C@@]2([C@H](O)CN(CCN(C)C)Cc2cccc(Cl)c2)CC1=O [Example 44, 4-(((3aR,5aR,5bR,7aR,9S,11aR,11bR,13aS)-3a-((S)-2-((3-Chlorobenzyl)(2-(dimethylamino)ethyl)amino)-1-hydroxyethyl)-1-isopropyl-5a,5b,8,8,11a-pentamethyl-2-oxo-3,3a,4,5,5a,5b,6,7,7a,8,9,10,11,11a,11b,12,13,13a-octadecahydro-2H-cyclopenta[a]chrysen-9-yl)oxy)-2,2-dimethyl-4-oxobutanoic acid] — 2.3-fold lower, 1.8 nM
- CC(C)C1=C2[C@H]3CC[C@@H]4[C@@]5(C)CC[C@H](OC(=O)CC(C)(C)C(=O)O)C(C)(C)[C@@H]5CC[C@@]4(C)[C@]3(C)CC[C@@]2([C@@H](O)CN(CCN(C)C)Cc2cccc(Cl)c2)CC1=O [Example 45, 4-(((3aR,5aR,5bR,7aR,9S,11aR,11bR,13aS)-3a-((R)-2-((3-Chlorobenzyl)(2-(dimethylamino)ethyl)amino)-1-hydroxyethyl)-1-isopropyl-5a,5b,8,8,11a-pentamethyl-2-oxo-3,3a,4,5,5a,5b,6,7,7a,8,9,10,11,11a,11b,12,13,13a-octadecahydro-2H-cyclopenta[a]chrysen-9-yl)oxy)-2,2-dimethyl-4-oxobutanoic acid] — 2.2-fold lower, 1.9 nM
- CC(=O)N(Cc1cccc(Cl)c1)C[C@@H](O)[C@@]12CC[C@]3(C)[C@H](CC[C@@H]4[C@@]5(C)CC[C@H](OC(=O)CC(C)(C)C(=O)O)C(C)(C)[C@@H]5CC[C@]43C)C1=C(C(C)C)C(=O)C2 [Example 47, 4-(((3aR,5aR,5bR,7aR,9S,11aR,11bR,13aS)-3a-((S)-2-(N-(3-chlorobenzyl)acetamido)-1-hydroxyethyl)-1-isopropyl-5a,5b,8,8,11a-pentamethyl-2-oxo-3,3a,4,5,5a,5b,6,7,7a,8,9,10,11,11a,11b,12,13,13a-octadecahydro-2H-cyclopenta[a]chrysen-9-yl)oxy)-2,2-dimethyl-4-oxobutanoic acid] — 1.8-fold higher, 7.7 nM
- CC(C)C1=C2[C@H]3CC[C@@H]4[C@@]5(C)CC[C@H](OC(=O)CC(C)(C)C(=O)O)C(C)(C)[C@@H]5CC[C@@]4(C)[C@]3(C)CC[C@@]2([C@@H](O)CN(CCN(C)C)Cc2ccccc2Cl)CC1=O [Example 50, 4-(((3aR,5aR,5bR,7aR,9S,11aR,11bR,13aS)-3a-((R)-2-((2-chlorobenzyl)(2-(dimethylamino)ethyl)amino)-1-hydroxyethyl)-1-isopropyl-5a,5b,8,8,11a-pentamethyl-2-oxo-3,3a,4,5,5a,5b,6,7,7a,8,9,10,11,11a,11b,12,13,13a-octadecahydro-2H-cyclopenta[a]chrysen-9-yl)oxy)-2,2-dimethyl-4-oxobutanoic acid] — 3.8-fold lower, 1.1 nM
- CC(=O)O[C@@H](CNCc1ccccc1)[C@@]12CC[C@]3(C)[C@H](CC[C@@H]4[C@@]5(C)CC[C@H](OC(=O)CC(C)(C)C(=O)O)C(C)(C)[C@@H]5CC[C@]43C)C1=C(C(C)C)C(=O)C2 [Example 52, 4-(((3aR,5aR,5bR,7aR,9S,11aR,11bR,13aS)-3a-((R)-1-Acetoxy-2-(benzylamino)ethyl)-1-isopropyl-5a,5b,8,8,11a-pentamethyl-2-oxo-3,3a,4,5,5a,5b,6,7,7a,8,9,10,11,11a,11b,12,13,13a-octadecahydro-2H-cyclopenta[a]chrysen-9-yl)oxy)-2,2-dimethyl-4-oxobutanoic acid] — within 1.5-fold, 4.6 nM
- CC(C)C1=C2[C@H]3CC[C@@H]4[C@@]5(C)CC[C@H](OC(=O)CC(C)(C)C(=O)O)C(C)(C)[C@@H]5CC[C@@]4(C)[C@]3(C)CC[C@@]2([C@@H](O)CN2CCc3ccccc3C2)CC1=O [Example 63, 4-(((3aR,5aR,5bR,7aR,9S,11aR,11bR,13aS)-3a-((R)-2-(3,4-dihydroisoquinolin-2(1H)-yl)-1-hydroxyethyl)-1-isopropyl-5a,5b,8,8,11a-pentamethyl-2-oxo-3,3a,4,5,5a,5b,6,7,7a,8,9,10,11,11a,11b,12,13,13a-octadecahydro-2H-cyclopenta[a]chrysen-9-yl)oxy)-2,2-dimethyl-4-oxobutanoic acid] — within 1.5-fold, 3.2 nM
- CC(C)C1=C2[C@H]3CC[C@@H]4[C@@]5(C)CC[C@H](OC(=O)CC(C)(C)C(=O)O)C(C)(C)[C@@H]5CC[C@@]4(C)[C@]3(C)CC[C@@]2([C@H](O)CN2CCc3ccccc3C2)CC1=O [Example 64, 4-(((3aR,5aR,5bR,7aR,9S,11aR,11bR,13aS)-3a-((S)-2-(3,4-dihydroisoquinolin-2(1H)-yl)-1-hydroxyethyl)-1-isopropyl-5a,5b,8,8,11a-pentamethyl-2-oxo-3,3a,4,5,5a,5b,6,7,7a,8,9,10,11,11a,11b,12,13,13a-octadecahydro-2H-cyclopenta[a]chrysen-9-yl)oxy)-2,2-dimethyl-4-oxobutanoic acid] — 1.7-fold higher, 7.2 nM
